Assay type in all cases: cell-based
Experiment [1] relates to BxPC3 pancreatic cell line. The experiment can be described thus: Cell survival and adhesion assay (luciferase), BxPC3. Particulars: BXPC-3, 5 hours, BxPC3 cells overlayed onto human mesothelial cell monolayers, read-out: relative reduction in Luciferase activity, BxPC3 10 μM. As to the method: (§1) SU86 is a pancreatic cancer cell line. HT29 is a colon cancer cell line. BxPC3 is a pancreatic cell line. A2780 is an ovarian cancer cell line.
(§2) BxPc-3 and Su.86.86 pancreatic and HT-29 colon and A2780 ovarian cancer cell lines were purchased from ATCC and cultured in DMEM supplemented with 10% fetal bovine serum, glutamine, penicillin, and streptomycin. All cells were cultured at 37° C. in a humidified incubator in a 5% CO2 atmosphere. The cancer cell lines were transduced with a retrovirus containing pLuc-puro, a constitutive luciferase reporter and selected in […] media. Transient transfection of a full-length human c-FLIP construct in the vector pcDNA3 was performed as previously described. Scaife et al. Cancer Research 2002, 62: 6870-78.
(§3) Pancreatic cancer cell cultures (BxPc-3 and Su.86.86) and colon cancer (HT-29) and ovarian cancer (A2780) cells that were stably transfected with a firefly luciferase construct were transiently suspended with trypsin-PBS. 10^5 cells were overlayed onto confluent monolayers of human mesothelial cells in 96-well plates while simultaneously adding various concentrations of compounds of the invention or DMSO for 5 hours. The non-adherent cells were carefully washed away from the wells twice with 100 μl/well of blocking buffer (1% BSA in PBS) and twice again with ice-cold PBS. Adherent and surviving cells were detected by luciferase activity in a luminometer as follows. The cells were lysed in 0.1% TritonX-100, 25 mM Gly-Gly (7.8), MgSO4, 4 mM EGTA, 1 mM DTT. The total protein concentration was normalized with lysis buffer. 50 μl of cell lysate was added per well of a 96-well microtiter plate. 50 μl of luciferin substrate (Promega) was added per well and then the light output determined in a luminometer.

Experiment [2] concerns HT29 colon cancer cell line. The experiment can be described thus: Cell survival and adhesion assay (luciferase), HT29. Particulars: HT-29, 5 hours, HT29 cells overlayed onto human mesothelial cell monolayers, read-out: relative reduction in Luciferase activity, HT29 10 μM. Here is the method:
as §1, §2, §3

For experiment [3], the system named is SU86 pancreatic cancer cell line (Su.86.86). The experiment can be described thus: Cell survival and adhesion assay (luciferase), SU86. Particulars: 5 hours, SU86 cells overlayed onto human mesothelial cell monolayers, read-out: relative reduction in Luciferase activity, SU86 10 μM. As to the method:
as §1, §2, §3

Experiment [4] has as its system A2780 ovarian cancer cell line. Put plainly: Cell survival and adhesion assay (luciferase), A2780. Particulars: 5 hours, A2780 cells overlayed onto human mesothelial cell monolayers, read-out: relative reduction in Luciferase activity, A2780 10 μM. Here is the method:
as §1, §2, §3

As for `CC(C)(C(=O)NCc1ccccc1F)c1ccc(S(=O)(=O)/C=C/C#N)cc1` [Example 40, 2-[4-((E)-2-Cyano-ethenesulfonyl)-phenyl]-N-(2-fluoro-benzyl)-isobutyramide], the inhibition at 10 µM in experiment [1] was over 85%; in experiment [2] it was over 85%; in experiment [3], 50 to 85%.

As to `COCCOCc1ccc(NC(=O)C(C)(C)c2ccc(S(=O)(=O)/C=C/C#N)cc2)cc1` [Example 31, 2-[4-((E)-2-Cyano-ethenesulfonyl)-phenyl]-N-[4-(2-methoxy-ethoxymethyl)-phenyl]-isobutyramide], the inhibition at 10 µM in experiment [1] was 50 to 85%; in experiment [2] it was 50 to 85%; in experiment [3] it was 10 to 50%.

Turning to `CC(C)(c1ccc(S(=O)(=O)/C=C/C#N)cc1)c1nnc(C2CCCCC2)o1` [Example 53, (E)-3-{4-[1-(5-Cyclohexyl-[1,3,4]oxadiazol-2-yl)-1-methyl-ethyl]-benzenesulfonyl}-acrylonitrile], the inhibition at 10 µM in experiment [1] is over 85%; in experiment [2], over 85%; in experiment [3], 50 to 85%.

Regarding `CC(C)(C(=O)NNC(=O)C1CCCCC1)c1ccc(S(=O)(=O)/C=C/C#N)cc1` [Example 52, Cyclohexanecarboxylic acid N′-{2-[4-((E)-2-cyano-ethenesulfonyl)-phenyl]-2-methyl-propionyl}-hydrazide], the inhibition at 10 µM in experiment [1] is under 10%; in experiment [2], 50 to 85%; in experiment [3], 10 to 50%.

As to `CC(C)(C(=O)NCc1ccc(S(N)(=O)=O)cc1)c1ccc(S(=O)(=O)/C=C/C#N)cc1` [Example 26, 2-[4-((E)-2-Cyano-ethenesulfonyl)-phenyl]-N-(4-sulfamoyl-benzyl)-isobutyramide], the inhibition at 10 µM in experiment [1], in experiment [2] and in experiment [3] was under 10% in each case.

As for `COc1ccccc1CN(C)C(=O)C(C)(C)c1ccc(S(=O)(=O)/C=C/C#N)cc1` [Example 46, 2-[4-((E)-2-Cyano-ethenesulfonyl)-phenyl]-N-(2-methoxy-benzyl)-N-methyl-isobutyramide], the inhibition at 10 µM in experiment [1] was over 85%; in experiment [2] it was over 85%; in experiment [3] it was 50 to 85%.

In the case of `CC(C)(C)OC(=O)NCCCCCCNC(=O)C(C)(C)c1ccc(S(=O)(=O)/C=C/C#N)cc1` [Example 33, (6-{2-[4-((E)-2-Cyano-ethenesulfonyl)-phenyl]-2-methyl-propionylamino}-hexyl)-carbamic acid tert-butyl ester], the inhibition at 10 µM in experiment [1] was 10 to 50%; in experiment [2], 50 to 85%; in experiment [3] it was under 10%.

Turning to `CC(C)(C(=O)N[C@H](CO)c1ccccc1)c1ccc(S(=O)(=O)/C=C/C#N)cc1` [Example 29, 2-[4-((E)-2-Cyano-ethenesulfonyl)-phenyl]-N—((S)-2-hydroxy-1-phenyl-ethyl)-isobutyramide], the results for the inhibition at 10 µM in experiment [1], in experiment [2] and in experiment [3] were under 10%, 50 to 85% and under 10%, respectively.

As to `Cc1cnc(C(C)(C)c2ccc(S(=O)(=O)/C=C/C#N)cc2)o1` [Example 51, (E)-3-{4-[1-Methyl-1-(5-methyl-oxazol-2-yl)-ethyl]-benzenesulfonyl}-acrylonitrile], the inhibition at 10 µM in experiment [1] is over 85%; in experiment [2] it was over 85%; in experiment [3] it was 50 to 85%.

`COCCOc1cccc(NC(=O)C(C)(C)c2ccc(S(=O)(=O)/C=C/C#N)cc2)c1` [Example 42, 2-[4-((E)-2-Cyano-ethenesulfonyl)-phenyl]-N-[3-(2-methoxy-ethoxy)-phenyl]-isobutyramide]: the inhibition at 10 µM is 50 to 85% in experiment [1], over 85% in experiment [2] and 50 to 85% in experiment [3].

For the molecule `CC(C)(C)OC(=O)NCCNC(=O)C(C)(C)c1ccc(S(=O)(=O)/C=C/C#N)cc1` [Example 32, (2-{2-[4-((E)-2-Cyano-ethenesulfonyl)-phenyl]-2-methyl-propionylamino}-ethyl)-carbamic acid tert-butyl ester], the inhibition at 10 µM was 10 to 50% in experiment [1], 50 to 85% in experiment [2] and 10 to 50% in experiment [3].

On to `CC(C)(C(=O)N1CCCCC1)c1ccc(S(=O)(=O)/C=C/C#N)cc1` [Example 28, (E)-3-[4-(1,1-Dimethyl-2-oxo-2-piperidin-1-yl-ethyl)-benzenesulfonyl]-acrylonitrile], for which the inhibition at 10 µM is 50 to 85% in experiment [1], over 85% in experiment [2] and 10 to 50% in experiment [3].

As for `CC(C)(C(=O)N[C@H]1CCCCNC1=O)c1ccc(S(=O)(=O)/C=C/C#N)cc1` [Example 30, 2-[4-((E)-2-Cyano-ethenesulfonyl)-phenyl]-N—((S)-2-oxo-azepan-3-yl)-isobutyramide], the inhibition at 10 µM in experiment [1] is under 10%; in experiment [2], 50 to 85%; in experiment [3] it was under 10%.

For `Cc1ccc2oc(C(C)(C)c3ccc(S(=O)(=O)/C=C/C#N)cc3)nc2c1` [Example 50, (E)-3-{4-[1-Methyl-1-(5-methyl-benzoxazol-2-yl)-ethyl]-benzenesulfonyl}-acrylonitrile], the inhibition at 10 µM was over 85% in experiment [1], over 85% in experiment [2] and 50 to 85% in experiment [3].

For the molecule `CN(Cc1ccccc1)C(=O)C(C)(C)c1ccc(S(=O)(=O)/C=C/C#N)cc1` [Example 22, N-Benzyl-2-[4-((E)-2-cyano-ethenesulfonyl)-phenyl]-N-methyl-isobutyramide], the inhibition at 10 µM is over 85% in experiment [1], 50 to 85% in experiment [3] and over 85% in experiment [4].

In the case of `CC(C)(c1ccc(S(=O)(=O)/C=C/C#N)cc1)c1nc2ccccc2[nH]1` [Example 49, (E)-3-{4-[1-(1H-Benzimidazol-2-yl)-1-methyl-ethyl]-benzenesulfonyl}-acrylonitrile], the inhibition at 10 µM in experiment [1], in experiment [3] and in experiment [4] was under 10% each time.

As to `CC(C)(C(=O)NCCc1ccccc1)c1ccc(S(=O)(=O)/C=C/C#N)cc1` [Example 24, 2-[4-((E)-2-Cyano-ethenesulfonyl)-phenyl]-N-phenethyl-isobutyramide], the inhibition at 10 µM in experiment [1] is 50 to 85%; in experiment [3] it was 50 to 85%; in experiment [4] it was over 85%.

As for `COc1cccc(CNC(=O)C(C)(C)c2ccc(S(=O)(=O)/C=C/C#N)cc2)c1` [Example 44, 2-[4-((E)-2-Cyano-ethenesulfonyl)-phenyl]-N-(3-methoxy-benzyl)-isobutyramide], the inhibition at 10 µM in experiment [1] was over 85%; in experiment [2], over 85%; in experiment [3] it was 50 to 85%.

As for `CCNc1nnc(C(C)(C)c2ccc(S(=O)(=O)/C=C/C#N)cc2)o1` [Example 48, (E)-3-{4-[1-(5-Ethylamino-[1,3,4]oxadiazol-2-yl)-1-methyl-ethyl]-benzenesulfonyl}-acrylonitrile], the inhibition at 10 µM is under 10% in experiment [1], under 10% in experiment [3] and 10 to 50% in experiment [4].

Turning to `COc1ccccc1CNC(=O)C(C)(C)c1ccc(S(=O)(=O)/C=C/C#N)cc1` [Example 45, 2-[4-((E)-2-Cyano-ethenesulfonyl)-phenyl]-N-(2-methoxy-benzyl)-isobutyramide], the inhibition at 10 µM in experiment [1] is over 85%; in experiment [2] it was over 85%; in experiment [3], 50 to 85%.

`COc1cccc(NC(=O)C(C)(C)c2ccc(S(=O)(=O)/C=C/C#N)cc2)c1` [Example 25, 2-[4-((E)-2-Cyano-ethenesulfonyl)-phenyl]-N-(3-methoxy-phenyl)-isobutyramide]: the inhibition at 10 µM was 50 to 85% in experiment [1], 50 to 85% in experiment [3] and over 85% in experiment [4].

As for `CC(C)(C(=O)Nc1cccc(OCC(=O)O)c1)c1ccc(S(=O)(=O)/C=C/C#N)cc1` [Example 43, (3-{2-[4-((E)-2-Cyano-ethenesulfonyl)-phenyl]-2-methyl-propionylamino}-phenoxy)-acetic acid], the inhibition at 10 µM in experiment [1], in experiment [2] and in experiment [3] was under 10% each time.

Consider `CC(C)(c1ccc(S(=O)(=O)/C=C/C#N)cc1)c1nnc(Nc2ccccc2)o1` [Example 47, (E)-3-{4-[1-Methyl-1-(5-phenylamino-[1,3,4]oxadiazol-2-yl)-ethyl]-benzenesulfonyl}-acrylonitrile], for which the inhibition at 10 µM in experiment [1] is 50 to 85%; in experiment [3], 10 to 50%; in experiment [4], 50 to 85%.
